{"source": "patent US20080089860A1", "about": "“Therapeutic compositions and methods useful in treating cancer” (priority 2006, published 2008)", "key": {"[1]": {"test_system": "DR cells", "experiment": "DR lymphoma cell growth, MTT assay", "format": "cell-based, human", "settings": "day 6; single agent at 50 μg/ml and 100 μg/ml", "experimental": "(§1) For cell proliferation assays, cells were grown in 10% FCS culture medium containing various amounts of IFNs and/or sodium stibogluconate in 96 well plates and cultured at 37° C. for 3 or 6 days as indicated. The numbers of viable cells in proliferation assays were determined by MTT assays as described in Phatak et al., J. Immunol. 167, 3391 (2001)."}, "[2]": {"test_system": "U266 cells", "experiment": "U266 multiple myeloma cell growth, MTT assay", "format": "cell-based, human", "settings": "day 6", "experimental": "as §1"}, "[3]": {"test_system": "WiT49-N1 cells", "experiment": "WiT49-N1 Wilms tumor cell growth, MTT assay", "format": "cell-based, human", "settings": "day 6 culture; killing at 100 μg/ml", "experimental": "as §1"}, "[4]": {"test_system": "C42 cells", "experiment": "C42 prostate cancer cell growth", "format": "cell-based, human", "experimental": "as §1"}, "[5]": {"experiment": "Toxicity in nude mice (viability, body weight)", "format": "in vivo", "experimental": "In light of the relatively rapid rate of clearance of the drug in vivo, 440 mg Sb/kg dosage was used to ensure the detection of the effectiveness of the drug for this initial study.\nAs discussed above, the dosage of sodium stibogluconate used for the treatment of nude mice was 12 mg Sb/mouse, s.c., daily (or approximately 440 mg/kg body weight). […] As an initial step to assess the toxicity of such a high dosage of sodium stibogluconate in nude mice, the effect of sodium stibogluconate on the viability and body weights of WM9 xenografts nude mice during the 25 day period of the study was determined."}, "[6]": {"target": "T1, intracellular Flag-PRL-2 (Homo sapiens, UniProt Q12974)", "T1 construct": "expressed in transfected cells; host or cells: NIH3T3 (pBabepuro, puromycin-selected)", "T1 sequence (Q12974 whole entry)": "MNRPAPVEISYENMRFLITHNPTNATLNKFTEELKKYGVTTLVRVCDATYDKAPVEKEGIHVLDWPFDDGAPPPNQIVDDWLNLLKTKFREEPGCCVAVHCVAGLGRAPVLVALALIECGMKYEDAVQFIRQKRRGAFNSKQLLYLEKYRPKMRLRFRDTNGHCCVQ", "experiment": "Immunocomplex PTPase assay, Flag-PRL-2 NIH3T3 transfectants", "format": "cell-based", "experimental": "(§2) Immunocomplex PTPase assays were performed to assess the effects of sodium stibogluconate on intracellular PTPases. Cells were untreated or treated with sodium stibogluconate for 5 minutes, washed with fresh medium and then lysed in cold lysis buffer (50 mM Tris, pH 7.4; 150 mM NaCl; 1% NP40; 2 mM PMSF; 20 μg/ml of Aprotinin). The lysates were incubated with an anti-Flag antibody in immunoprecipitation assays. The immunocomplexes were collected with protein G sepharose beads (Pharmacia) and washed in cold lysis buffer for 4 times. […] C. for 18 hrs. 100 µL of malachite green solution (UBI) was added to each reaction prior to measurement of OD660 to quantify the amounts of free phosphate cleaved by the PTPases from the peptide substrate (Pathak et al., J. Imumol. 167, 3391 (2001)). The remaining 10% contents of individual samples were analyzed by SDS-PAGE/Western blotting to quantify the relative amounts of the phosphatase proteins. […]\n(§3) The effects of sodium stibogluconate on intracellular PTPases were assessed using NIH3T3 or WM9 transfectants. […]"}, "[7]": {"target": "T2, intracellular Flag-PRL-3 (Homo sapiens, UniProt O75365)", "T2 construct": "expressed in transfected cells; host or cells: NIH3T3 (pBabepuro, puromycin-selected)", "T2 sequence (O75365 whole entry)": "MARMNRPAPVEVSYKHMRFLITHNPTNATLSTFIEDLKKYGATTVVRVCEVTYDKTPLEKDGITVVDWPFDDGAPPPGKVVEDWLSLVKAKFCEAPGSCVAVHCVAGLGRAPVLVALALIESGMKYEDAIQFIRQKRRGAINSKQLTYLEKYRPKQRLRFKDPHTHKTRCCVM", "experiment": "Immunocomplex PTPase assay, Flag-PRL-3 NIH3T3 transfectants", "format": "cell-based", "settings": "cells treated 5 min", "experimental": "as §2, §3"}}, "note": "Entries after “also recorded” stand apart in the source; their conditions may differ.", "data": [{"smiles": "O.O.O.O.O.O.O.O.O.O=C([O-])[C@@H]1[O][Sb]2([O-])([O][Sb]34([OH])[O][C@H]([C@H](O)CO)[C@H]([O]3)[C@H](C(=O)[O-])[O]4)[O][C@H]([C@H](O)CO)[C@@H]1[O]2.[Na+].[Na+].[Na+]", "note": "[sodium stibogluconate]", "values": [{"measurement": "growth inhibition of DR cells", "setting": "[1]", "value": "complete or near complete killing"}, {"measurement": "growth inhibition of U266 cells by the drug by itself", "setting": "[2]", "value": "substantial growth inhibition activity"}, {"measurement": "sensitivity of WiT49-N1 cells", "setting": "[3]", "value": "sensitive; also recorded: complete or near complete killing"}, {"measurement": "response of C42 prostate cancer cell line", "setting": "[4]", "value": "highly resistant"}, {"measurement": "tolerability", "setting": "[5]; 12 mg Sb daily (440 mg Sb/kg daily)", "value": "well tolerated with no serious side effects"}, {"measurement": "tolerated daily dose in mice, pilot study", "setting": "[5]; approximately 700-800 mg Sb/kg", "value": 20, "unit": "mg Sb"}, {"measurement": "survival of WM9-inoculated nude mice", "setting": "[5]; day 25", "value": "survived until the end of the study"}, {"measurement": "time required for full removal of effect on intracellular PRL-2 activity", "setting": "[6]", "value": "at least 24 hours"}, {"measurement": "PTPase activity of immunocomplexes from treated Flag-PRL-2 transfectants", "setting": "[6]; cells treated 5 min", "value": "lack of PTPase activity"}, {"measurement": "PTPase activity of immunocomplexes from treated Flag-PRL-3 transfectants", "setting": "[7]", "value": "lack of PTPase activity"}]}]}
